Measurements as given in ChEMBL document CHEMBL4507279, “Data for DCP probe BI-9627” (2021).

Legend:
[1] = target: 5-hydroxytryptamine receptor 2A (Homo sapiens, UniProt P28223); test: GPCRScan assay: inhibition of 5-HT2A; design: radioligand conc. used [nm] 1.2 – 2.4, parental cells HEKT
[2] = target: 5-hydroxytryptamine receptor 1A (Homo sapiens) (UniProt P08908); test: 5HT1A/HU Eurofins-Panlabs selectivity data (BI); conditions: Compound concentration 10.0 uM
[3] = target: Adenosine receptor A1 (Homo sapiens) (UniProt P30542); test: A1/HU Eurofins-Panlabs selectivity data (BI); conditions: Compound concentration 10.0 uM
[4] = target: Adenosine receptor A3 (Homo sapiens) (UniProt P0DMS8); test: A3/H Eurofins-Panlabs selectivity data (BI); conditions: Compound concentration 10.0 uM
[5] = target: T1, Alpha-1A adrenergic receptor (Homo sapiens) (UniProt P35348); test: ALPHA1A/R Eurofins-Panlabs selectivity data (BI); conditions: Rattus norvegicus; Compound concentration 10.0 uM
T1 sequence (whole entry): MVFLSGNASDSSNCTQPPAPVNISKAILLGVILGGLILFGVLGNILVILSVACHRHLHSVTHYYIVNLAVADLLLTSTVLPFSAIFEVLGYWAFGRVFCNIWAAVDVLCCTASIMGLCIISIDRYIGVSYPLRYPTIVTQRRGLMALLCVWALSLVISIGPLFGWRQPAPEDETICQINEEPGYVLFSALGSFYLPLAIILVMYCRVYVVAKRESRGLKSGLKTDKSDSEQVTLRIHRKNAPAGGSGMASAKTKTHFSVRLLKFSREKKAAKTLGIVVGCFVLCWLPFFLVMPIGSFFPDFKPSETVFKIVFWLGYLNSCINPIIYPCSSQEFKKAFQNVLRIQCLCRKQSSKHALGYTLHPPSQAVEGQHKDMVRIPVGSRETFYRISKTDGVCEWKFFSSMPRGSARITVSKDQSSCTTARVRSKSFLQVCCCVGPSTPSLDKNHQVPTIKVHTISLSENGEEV

[6] = target: Alpha-1B adrenergic receptor (Homo sapiens) (UniProt P35368); test: ALPHA1B/R Eurofins-Panlabs selectivity data (BI); conditions: Rattus norvegicus; Compound concentration 10.0 uM
[7] = target: T2, Alpha-2A adrenergic receptor (Homo sapiens) (UniProt P08913); test: ALPHA2A/H Eurofins-Panlabs selectivity data (BI); conditions: Compound concentration 10.0 uM
T2 sequence (whole entry): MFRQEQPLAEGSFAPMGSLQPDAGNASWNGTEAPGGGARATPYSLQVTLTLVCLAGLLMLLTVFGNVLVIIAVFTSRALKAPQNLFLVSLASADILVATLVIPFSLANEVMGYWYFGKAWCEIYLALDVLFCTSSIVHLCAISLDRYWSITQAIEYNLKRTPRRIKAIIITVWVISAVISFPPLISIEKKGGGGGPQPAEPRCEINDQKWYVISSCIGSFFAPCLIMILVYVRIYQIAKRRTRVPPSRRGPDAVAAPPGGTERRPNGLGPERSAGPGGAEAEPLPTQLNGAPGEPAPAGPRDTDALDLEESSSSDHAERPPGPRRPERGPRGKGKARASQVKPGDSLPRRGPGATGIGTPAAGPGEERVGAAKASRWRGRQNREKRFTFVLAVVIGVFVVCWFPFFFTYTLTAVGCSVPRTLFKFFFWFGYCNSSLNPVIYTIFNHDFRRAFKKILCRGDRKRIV

[8] = target: Beta-1 adrenergic receptor (Homo sapiens) (UniProt P08588); test: BETA1/HU Eurofins-Panlabs selectivity data (BI); conditions: Compound concentration 10.0 uM
[9] = target: D(1A) dopamine receptor (Homo sapiens) (UniProt P21728); test: D1/HU Eurofins-Panlabs selectivity data (BI); conditions: Compound concentration 10.0 uM
[10] = target: Estrogen receptor (Homo sapiens) (UniProt P03372); test: ERALPHA/H Eurofins-Panlabs selectivity data (BI); conditions: Compound concentration 10.0 uM
[11] = target: Endothelin receptor type B (Homo sapiens) (UniProt P24530); test: ETB/HUM Eurofins-Panlabs selectivity data (BI); conditions: Compound concentration 10.0 uM
[12] = target: Gamma-aminobutyric acid receptor subunit alpha-1 (Rattus norvegicus) (UniProt P62813); test: GABAA MUSCIMOL CENT Eurofins-Panlabs selectivity data (BI); conditions: Compound concentration 10.0 uM
[13] = target: Gamma-aminobutyric acid receptor subunit alpha-1 (Rattus norvegicus) (UniProt P62813); test: GABAACENTR Eurofins-Panlabs selectivity data (BI); conditions: Compound concentration 10.0 uM
[14] = target: Gamma-aminobutyric acid type B receptor subunit 1 (Homo sapiens) (UniProt Q9UBS5); test: GABA_B1A Eurofins-Panlabs selectivity data (BI); conditions: Compound concentration 10.0 uM
[15] = target: Glucocorticoid receptor (Homo sapiens) (UniProt P04150); test: GLUCOCORTICO Eurofins-Panlabs selectivity data (BI); conditions: Compound concentration 10.0 uM
[16] = target: Histamine H1 receptor (Homo sapiens) (UniProt P35367); test: H1/H Eurofins-Panlabs selectivity data (BI); conditions: Compound concentration 10.0 uM
[17] = target: Muscarinic acetylcholine receptor M3 (Homo sapiens) (UniProt P20309); test: M3/HU Eurofins-Panlabs selectivity data (BI); conditions: Compound concentration 10.0 uM
[18] = target: Sodium channel alpha subunit (site 2) (Homo sapiens, UniProt P35498+P35499+Q01118+Q14524+Q15858+Q99250+Q9NY46+Q9UI33+Q9UQD0+Q9Y5Y9); test: NA+/SITE2ATG Eurofins-Panlabs selectivity data (BI); type: protein assay, Cavia porcellus; design: mode of action antagonist; conditions: guinea pig; compound concentration 30 uM; read-out: % Ctrl
[19] = target: Glutamate NMDA receptor (Rattus norvegicus) (UniProt P35439+Q00959+Q00960+Q00961+Q62645+Q8VHN2+Q9R1M7); test: NMDAAGSI/RA Eurofins-Panlabs selectivity data (BI); type: protein-complex assay; conditions: filed as agonist, Compound concentration 10.0 uM
[20] = target: Sigma non-opioid intracellular receptor 1 (Homo sapiens) (UniProt Q99720); test: SIGMA1/HU Eurofins-Panlabs selectivity data (BI); conditions: Compound concentration 10.0 uM
[21] = target: Sigma intracellular receptor 2 (Homo sapiens) (UniProt Q5BJF2); test: SIGMA2/R Eurofins-Panlabs selectivity data (BI); conditions: Rattus norvegicus; Compound concentration 10.0 uM
[22] = target: Thyroid hormone receptor alpha (Rattus norvegicus) (UniProt P63059); test: THYROID HORM Eurofins-Panlabs selectivity data (BI); conditions: Compound concentration 10.0 uM
[23] = target: Neuropeptide Y receptor type 2 (Homo sapiens) (UniProt P49146); test: Y2/HU Eurofins-Panlabs selectivity data (BI); conditions: Compound concentration 10.0 uM
[24] = target: 5-hydroxytryptamine receptor 1A (Homo sapiens) (UniProt P08908); conditions: Compound concentration 10.0 uM
[25] = target: Melatonin receptor type 1A (Homo sapiens) (UniProt P48039); conditions: Compound concentration 10.0 uM
[26] = target: D(3) dopamine receptor (Homo sapiens) (UniProt P35462); conditions: Compound concentration 10.0 uM

5-hydroxytryptamine receptor 1A (Homo sapiens), sequence (P08908 whole entry): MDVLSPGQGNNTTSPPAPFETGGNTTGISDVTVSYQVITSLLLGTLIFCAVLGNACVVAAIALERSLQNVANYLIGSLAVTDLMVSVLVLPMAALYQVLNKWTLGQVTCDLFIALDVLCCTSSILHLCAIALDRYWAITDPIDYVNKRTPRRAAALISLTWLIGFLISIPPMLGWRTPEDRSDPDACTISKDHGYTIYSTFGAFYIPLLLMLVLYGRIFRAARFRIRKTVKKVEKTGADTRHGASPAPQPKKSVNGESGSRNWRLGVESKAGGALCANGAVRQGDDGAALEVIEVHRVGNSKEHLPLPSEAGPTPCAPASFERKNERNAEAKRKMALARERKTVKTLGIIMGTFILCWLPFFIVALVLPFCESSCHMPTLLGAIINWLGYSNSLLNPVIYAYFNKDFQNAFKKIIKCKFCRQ
Gamma-aminobutyric acid receptor subunit alpha-1 (Rattus norvegicus), sequence (P62813 whole entry): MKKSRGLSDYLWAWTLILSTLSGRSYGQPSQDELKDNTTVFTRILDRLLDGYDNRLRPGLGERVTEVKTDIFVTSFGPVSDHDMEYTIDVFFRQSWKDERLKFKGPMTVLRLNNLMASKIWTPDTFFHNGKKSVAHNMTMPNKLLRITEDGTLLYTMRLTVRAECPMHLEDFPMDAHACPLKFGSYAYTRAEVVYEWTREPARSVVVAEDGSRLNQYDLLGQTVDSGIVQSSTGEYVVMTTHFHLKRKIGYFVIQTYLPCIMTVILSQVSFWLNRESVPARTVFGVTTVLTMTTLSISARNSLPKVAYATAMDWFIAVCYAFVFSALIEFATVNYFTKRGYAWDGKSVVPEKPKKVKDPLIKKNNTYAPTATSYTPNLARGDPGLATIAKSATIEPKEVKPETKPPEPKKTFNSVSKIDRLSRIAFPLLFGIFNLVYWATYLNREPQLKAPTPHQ
D(1A) dopamine receptor (Homo sapiens), sequence (P21728 whole entry): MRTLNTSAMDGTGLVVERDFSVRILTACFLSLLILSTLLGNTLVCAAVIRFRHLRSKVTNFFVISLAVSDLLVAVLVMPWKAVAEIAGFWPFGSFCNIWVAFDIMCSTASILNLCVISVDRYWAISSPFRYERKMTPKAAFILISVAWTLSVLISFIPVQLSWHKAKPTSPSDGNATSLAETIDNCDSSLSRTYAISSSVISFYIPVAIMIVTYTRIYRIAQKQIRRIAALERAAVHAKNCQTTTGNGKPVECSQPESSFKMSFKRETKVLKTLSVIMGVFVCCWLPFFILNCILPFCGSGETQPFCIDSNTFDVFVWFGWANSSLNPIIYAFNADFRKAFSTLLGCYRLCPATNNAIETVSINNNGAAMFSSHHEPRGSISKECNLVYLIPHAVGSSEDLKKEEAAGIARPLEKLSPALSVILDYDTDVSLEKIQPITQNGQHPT
Glucocorticoid receptor (Homo sapiens), sequence (P04150 whole entry): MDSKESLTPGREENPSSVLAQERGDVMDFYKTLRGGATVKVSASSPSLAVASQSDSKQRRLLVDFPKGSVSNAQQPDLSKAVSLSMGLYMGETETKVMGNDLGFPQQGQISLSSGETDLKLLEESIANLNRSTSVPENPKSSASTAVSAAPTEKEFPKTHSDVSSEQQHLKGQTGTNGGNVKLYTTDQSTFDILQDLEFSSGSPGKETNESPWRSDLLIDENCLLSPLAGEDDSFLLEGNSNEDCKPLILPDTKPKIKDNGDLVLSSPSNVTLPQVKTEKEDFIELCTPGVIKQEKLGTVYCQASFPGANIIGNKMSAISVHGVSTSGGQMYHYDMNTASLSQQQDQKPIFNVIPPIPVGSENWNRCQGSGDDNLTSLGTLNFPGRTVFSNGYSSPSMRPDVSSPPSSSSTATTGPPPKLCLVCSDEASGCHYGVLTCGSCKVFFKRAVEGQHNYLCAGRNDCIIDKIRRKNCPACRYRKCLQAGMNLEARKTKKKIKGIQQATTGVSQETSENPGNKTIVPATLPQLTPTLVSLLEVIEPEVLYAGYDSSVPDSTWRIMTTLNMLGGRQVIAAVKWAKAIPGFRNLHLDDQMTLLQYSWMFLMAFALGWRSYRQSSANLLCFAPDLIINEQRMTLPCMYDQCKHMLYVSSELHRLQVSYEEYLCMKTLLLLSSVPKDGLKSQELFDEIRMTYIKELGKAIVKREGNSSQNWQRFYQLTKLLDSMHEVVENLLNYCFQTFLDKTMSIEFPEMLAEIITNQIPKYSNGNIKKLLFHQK
5-hydroxytryptamine receptor 2A, sequence (P28223 whole entry): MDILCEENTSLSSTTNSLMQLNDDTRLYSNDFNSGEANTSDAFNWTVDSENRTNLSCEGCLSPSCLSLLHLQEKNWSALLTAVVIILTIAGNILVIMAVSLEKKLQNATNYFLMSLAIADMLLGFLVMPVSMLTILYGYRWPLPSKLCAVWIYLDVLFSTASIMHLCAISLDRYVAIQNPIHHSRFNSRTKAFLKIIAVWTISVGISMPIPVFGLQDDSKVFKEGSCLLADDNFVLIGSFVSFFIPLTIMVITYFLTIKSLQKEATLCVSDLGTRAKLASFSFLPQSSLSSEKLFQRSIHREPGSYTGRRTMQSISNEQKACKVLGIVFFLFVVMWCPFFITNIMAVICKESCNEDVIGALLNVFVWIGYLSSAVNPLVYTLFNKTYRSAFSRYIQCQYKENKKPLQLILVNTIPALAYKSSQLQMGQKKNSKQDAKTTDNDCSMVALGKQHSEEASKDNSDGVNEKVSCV
Adenosine receptor A1 (Homo sapiens), sequence (P30542 whole entry): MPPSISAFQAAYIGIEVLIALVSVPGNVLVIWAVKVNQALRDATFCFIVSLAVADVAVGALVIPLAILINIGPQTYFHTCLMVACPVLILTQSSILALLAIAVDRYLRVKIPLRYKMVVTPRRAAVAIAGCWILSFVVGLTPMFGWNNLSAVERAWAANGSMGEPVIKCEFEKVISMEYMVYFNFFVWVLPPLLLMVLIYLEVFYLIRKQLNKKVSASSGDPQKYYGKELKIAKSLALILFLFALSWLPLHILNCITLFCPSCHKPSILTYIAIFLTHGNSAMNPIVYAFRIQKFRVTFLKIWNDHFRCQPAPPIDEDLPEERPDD
Alpha-1B adrenergic receptor (Homo sapiens), sequence (P35368 whole entry): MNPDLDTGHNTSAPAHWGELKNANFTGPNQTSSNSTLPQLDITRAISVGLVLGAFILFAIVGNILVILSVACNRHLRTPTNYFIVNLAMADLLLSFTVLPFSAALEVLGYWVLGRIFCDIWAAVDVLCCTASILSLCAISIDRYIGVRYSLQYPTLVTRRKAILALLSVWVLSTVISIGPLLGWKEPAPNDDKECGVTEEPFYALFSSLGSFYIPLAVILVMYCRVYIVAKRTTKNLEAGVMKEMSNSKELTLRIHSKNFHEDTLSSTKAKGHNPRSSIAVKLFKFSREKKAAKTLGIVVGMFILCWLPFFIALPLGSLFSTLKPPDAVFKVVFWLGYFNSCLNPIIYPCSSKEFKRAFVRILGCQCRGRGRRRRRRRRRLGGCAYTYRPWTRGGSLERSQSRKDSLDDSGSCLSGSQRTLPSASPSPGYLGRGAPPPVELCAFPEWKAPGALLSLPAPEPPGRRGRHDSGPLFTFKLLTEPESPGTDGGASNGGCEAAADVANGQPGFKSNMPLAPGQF
Gamma-aminobutyric acid type B receptor subunit 1 (Homo sapiens), sequence (Q9UBS5 whole entry): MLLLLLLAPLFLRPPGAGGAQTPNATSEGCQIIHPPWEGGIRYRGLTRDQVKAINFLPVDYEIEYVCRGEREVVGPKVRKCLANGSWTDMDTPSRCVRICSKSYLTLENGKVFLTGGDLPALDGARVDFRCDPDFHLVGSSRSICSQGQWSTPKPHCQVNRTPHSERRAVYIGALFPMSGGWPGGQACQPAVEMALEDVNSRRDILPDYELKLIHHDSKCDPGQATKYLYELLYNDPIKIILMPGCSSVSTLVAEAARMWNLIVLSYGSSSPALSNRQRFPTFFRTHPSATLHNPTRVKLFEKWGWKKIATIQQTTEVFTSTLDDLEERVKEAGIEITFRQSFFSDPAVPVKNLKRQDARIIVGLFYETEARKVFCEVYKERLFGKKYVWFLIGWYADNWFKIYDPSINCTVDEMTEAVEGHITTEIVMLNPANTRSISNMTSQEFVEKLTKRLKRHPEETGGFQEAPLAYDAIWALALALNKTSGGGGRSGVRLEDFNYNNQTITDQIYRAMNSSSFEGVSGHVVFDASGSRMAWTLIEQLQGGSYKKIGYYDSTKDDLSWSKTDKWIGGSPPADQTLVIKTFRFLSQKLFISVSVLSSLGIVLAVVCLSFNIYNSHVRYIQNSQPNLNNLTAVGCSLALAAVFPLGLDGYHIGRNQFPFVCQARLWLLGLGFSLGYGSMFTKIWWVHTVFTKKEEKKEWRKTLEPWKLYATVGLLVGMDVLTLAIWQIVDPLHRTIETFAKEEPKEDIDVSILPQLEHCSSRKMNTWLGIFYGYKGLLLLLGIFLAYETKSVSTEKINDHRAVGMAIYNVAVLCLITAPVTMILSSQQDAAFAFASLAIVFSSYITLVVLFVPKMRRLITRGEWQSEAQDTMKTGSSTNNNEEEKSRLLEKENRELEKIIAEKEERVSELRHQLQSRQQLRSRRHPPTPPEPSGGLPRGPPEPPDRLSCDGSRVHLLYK
Sigma intracellular receptor 2 (Homo sapiens), sequence (Q5BJF2 whole entry): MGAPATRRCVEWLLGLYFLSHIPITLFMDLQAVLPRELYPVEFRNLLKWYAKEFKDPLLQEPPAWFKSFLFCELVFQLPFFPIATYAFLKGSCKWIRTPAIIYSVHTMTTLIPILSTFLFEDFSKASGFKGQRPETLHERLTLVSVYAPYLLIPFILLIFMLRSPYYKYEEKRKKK
Neuropeptide Y receptor type 2 (Homo sapiens), sequence (P49146 whole entry): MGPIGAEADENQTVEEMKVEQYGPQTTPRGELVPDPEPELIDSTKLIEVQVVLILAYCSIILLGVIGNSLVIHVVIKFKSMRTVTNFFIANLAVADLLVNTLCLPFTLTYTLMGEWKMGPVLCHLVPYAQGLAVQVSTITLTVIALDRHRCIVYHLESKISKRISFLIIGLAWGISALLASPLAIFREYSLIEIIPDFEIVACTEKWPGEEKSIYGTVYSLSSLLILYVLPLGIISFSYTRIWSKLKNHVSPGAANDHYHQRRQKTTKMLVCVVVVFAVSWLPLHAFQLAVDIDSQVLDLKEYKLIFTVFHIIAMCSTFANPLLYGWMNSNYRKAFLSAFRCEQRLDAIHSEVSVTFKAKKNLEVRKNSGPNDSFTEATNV

With `CC(=O)N1CCC(c2ccc(C(=O)NC(=N)N)cc2C(F)(F)F)CC1` [BI 9627] the Ki [1] was 10 µM, the residual activity [2] was 82% and the residual activity [3] was 58%. It also gave a residual activity [4] of 105%, a residual activity [5] of 86% and a residual activity [6] of 95%. For the same compound, the residual activity [7] was 93%, the residual activity [8] was 102% and the residual activity [9] was 94%. The residual activity [10] was 106%, the residual activity [11] was 114% and the residual activity [12] was 89%. The residual activity [13] was 92%, the residual activity [14] was 103% and the residual activity [15] was 98%. The residual activity [16] was 98%, the residual activity [17] was 79% and the activity at 30 µM [18] was 100% (not active). It also gave a residual activity [19] of 90%, a residual activity [20] of 114% and a residual activity [21] of 90%. The residual activity [22] was 93%, the residual activity [23] was 103% and the inhibition [24] was -5.21%. It also gave a residual activity [25] of 96%.

In the case of `CC(=O)N1CCC(c2ccc(C(=O)NC3=NCCN3)cc2C(F)(F)F)CC1` [BI 0054], the inhibition [26] is reported as -7.75%.
